Tested on: TEAD-dependent transcription
Assay: Inhibitor activity against TEAD-dependent transcription in a cell-based reporter assay (MSTO-211H+12XGTIIC luciferase)
Details: Homo sapiens; MSTO-211H+12XGTIIC cell line, 24 hours compound incubation, luminescence normalized to cell viability fluorescence; read-out: MSTO-211H GMean IC50 (uM) Cell Assay Reporter Cell Variant: TEAD
Description: Determine Inhibitor Activity Against TEAD-Dependent Transcription in a Cell-Based Reporter Assay
The human mesothelioma cell line MSTO-211H was stably transfected with a pGL4.21 plasmid containing a synthetic promoter with 12 copies of the GTIIC TEAD response element that drives the expression of a luciferase reporter gene^1 using Lipofectamine transfection reagent (Thermno Fisher). Transfected cells were selected using puromycin and single cell clones expressing this construct (referred to as MSTO-211H+12XGTIIC) were generated by limiting dilution. MSTO-211H cells was characterized by genetic alterations in key components of the Hippo pathway^2, resulting in up-regulation of YAP/TEAD-mediated transcription. […] To evaluate TEAD inhibitors, the MSTO-211H+12XGTIIC cell line was seeded in a 96-well plate in 50 μL of culture media at 1×10^4 cells per well and incubated at 37° C. overnight. Serial dilutions of compounds (in total volume of 50 μL of culture media) were added to the cells and incubated at 37° C. for 24 hours. Each plate included cells treated with DMSO as high controls and cells treated with 20 μM of the reference compound K-975 (a known TEAD inhibitor)^3 as low controls. Cell viability was assayed by the addition of 25 μL of CellTiter-Fluor reagent (Promega) followed by a 30-minute incubation at 37° C. and quantification of the fluorescence signal (Ex400/Em505). Subsequently, luciferase expression was assayed by the addition of 25 μL of ONE-Glo reagent (Promega) followed by a 10-minute incubation at room temperature and quantification of the luminescence signal. The luminescence signal was normalized to the fluorescence signal to correct for any loss in cell viability over the 24-hour compound incubation period. The percentage of inhibition of normalized luminescence signal, indicative of compound-mediated inhibition of TEAD-dependent transcription, at individual compound concentrations relative to high and low controls was calculated. The data were analyzed by using nonlinear regression to generate IC50 values for individual compounds.

SMILES | IC50 [µM]
CS(=O)(=O)c1cccc(N2CCc3c(Oc4ccc(C(F)(F)F)cc4)cccc3C2=O)c1 [O-0001, 2-(3-(methylsulfonyl)phenyl)-5-(4-(trifluoromethyl)phenoxy)-3,4-dihydroisoquinolin-1(2H)-one] | 0.001 to 10
CS(=O)(=O)c1ccc(N2CCc3c(Oc4ccc(C(F)(F)F)cc4)cccc3C2=O)cc1 [O-0002, 2-(4-(methylsulfonyl)phenyl)-5-(4-(trifluoromethyl)phenoxy)-3,4-dihydroisoquinolin-1(2H)-one] | 0.001 to 10
O=C1c2cccc(Oc3ccc(C(F)(F)F)cc3)c2CCN1c1cccc(C(F)(F)F)c1 [O-0003, 5-(4-(trifluoromethyl)phenoxy)-2-(3-(trifluoromethyl)phenyl)-3,4-dihydroisoquinolin-1(2H)-one] | 0.001 to 10
O=C1c2cccc(Oc3ccc(C(F)(F)F)cc3)c2CCN1c1ccc(S(=O)(=O)C(F)(F)F)cc1 [O-0004, 5-(4-(trifluoromethyl)phenoxy)-2-(4-((trifluoromethyl)sulfonyl)phenyl)-3,4-dihydroisoquinolin-1(2H)-one] | 0.001 to 10
O=C1c2cccc(Oc3ccc(C(F)(F)F)cc3)c2CCN1c1cccc(S(=O)(=O)C(F)(F)F)c1 [O-0005, 5-(4-(trifluoromethyl)phenoxy)-2-(3-((trifluoromethyl)sulfonyl)phenyl)-3,4-dihydroisoquinolin-1(2H)-one] | 0.001 to 10
CS(=O)(=O)C1CC(N2CCc3c(Oc4ccc(C(F)(F)F)cc4)cccc3C2=O)C1 (centres unmarked) [O-0006, 2-(3-(methylsulfonyl)cyclobutyl)-5-(4-(trifluoromethyl)phenoxy)-3,4-dihydroisoquinolin-1(2H)-one] | 0.001 to 10
CS(=O)(=O)c1nccc(N2CCc3c(Oc4ccc(C(F)(F)F)cc4)cccc3C2=O)n1 [O-0007, 2-(2-(methylsulfonyl)pyrimidin-4-yl)-5-(4-(trifluoromethyl)phenoxy)-3,4-dihydroisoquinolin-1(2H)-one] | 0.001 to 10
Nc1ccc(N2CCc3c(Oc4ccc(C(F)(F)F)cc4)cccc3C2=O)cc1 [O-0010, 2-(4-aminophenyl)-5-(4-(trifluoromethyl)phenoxy)-3,4-dihydroisoquinolin-1(2H)-one] | 0.001 to 10
Nc1cccc(N2CCc3c(Oc4ccc(C(F)(F)F)cc4)cccc3C2=O)c1 [O-0011, 2-(3-aminophenyl)-5-(4-(trifluoromethyl)phenoxy)-3,4-dihydroisoquinolin-1(2H)-one] | 0.001 to 10
C=CC(=O)Nc1cccc(N2CCc3c(Oc4ccc(C(F)(F)F)cc4)cccc3C2=O)c1 [O-0012, N-(3-(1-oxo-5-(4-(trifluoromethyl)phenoxy)-3,4-dihydroisoquinolin-2(1H)-yl)phenyl)acrylamide] | 0.001 to 10
C=CC(=O)Nc1ccc(N2CCc3c(Oc4ccc(C(F)(F)F)cc4)cccc3C2=O)cc1 [O-0013, N-(4-(1-oxo-5-(4-(trifluoromethyl)phenoxy)-3,4-dihydroisoquinolin-2(1H)-yl)phenyl)acrylamide] | 0.001 to 10
O=C1c2cccc(Oc3ccc(C(F)(F)F)cc3)c2CCN1c1ccc2nc(C(F)(F)F)sc2c1 [O-0014, 2-(2-(trifluoromethyl)benzo[d]thiazol-6-yl)-5-(4-(trifluoromethyl)phenoxy)-3,4-dihydroisoquinolin-1(2H)-one] | 0.001 to 10
O=C1c2cccc(Oc3ccc(C(F)(F)F)cc3)c2CCN1c1ccc2nc(C(F)(F)F)[nH]c2c1 [O-0016, 2-(2-(trifluoromethyl)-1H-benzo[d]imidazol-6-yl)-5-(4-(trifluoromethyl)phenoxy)-3,4-dihydroisoquinolin-1(2H)-one] | 0.001 to 10
N#Cc1nc2ccc(N3CCc4c(Oc5ccc(C(F)(F)F)cc5)cccc4C3=O)cc2o1 [O-0017, 6-(1-oxo-5-(4-(trifluoromethyl)phenoxy)-3,4-dihydroisoquinolin-2(1H)-yl)benzo[d]oxazole-2-carbonitrile] | 0.001 to 10
CS(=O)(=O)N1CCC(N2CCc3c(Oc4ccc(C(F)(F)F)cc4)cccc3C2=O)CC1 [O-0018, 2-(1-(methylsulfonyl)piperidin-4-yl)-5-(4-(trifluoromethyl)phenoxy)-3,4-dihydroisoquinolin-1(2H)-one] | 0.001 to 10
O=C1c2cccc(Oc3ccc(C(F)(F)F)cc3)c2CCN1c1ccnc(S(=O)(=O)C(F)(F)F)n1 [O-0019, 5-(4-(trifluoromethyl)phenoxy)-2-(2-((trifluoromethyl)sulfonyl)pyrimidin-4-yl)-3,4-dihydroisoquinolin-1(2H)-one] | 0.001 to 10
O=C1c2cccc(Oc3ccc(C(F)(F)F)cc3)c2CCN1C1CCN(S(=O)(=O)C(F)(F)F)CC1 [O-0020, 5-(4-(trifluoromethyl)phenoxy)-2-(1-((trifluoromethyl)sulfonyl)piperidin-4-yl)-3,4-dihydroisoquinolin-1(2H)-one] | 0.001 to 10
CS(=O)(=O)N1CCCC(N2CCc3c(Oc4ccc(C(F)(F)F)cc4)cccc3C2=O)C1 (centres unmarked) [O-0022, 2-(1-(methylsulfonyl)piperidin-3-yl)-5-(4-(trifluoromethyl)phenoxy)-3,4-dihydroisoquinolin-1(2H)-one] | 0.001 to 10
CS(=O)(=O)N1CCC(N2CCc3c(Oc4ccc(C(F)(F)F)cc4)cccc3C2=O)C1 (centres unmarked) [O-0027, 2-(1-(methylsulfonyl)pyrrolidin-3-yl)-5-(4-(trifluoromethyl)phenoxy)-3,4-dihydroisoquinolin-1(2H)-one] | 0.001 to 10
CS(=O)(=O)c1cccc(N2CCc3ccc(Oc4ccc(C(F)(F)F)cc4)cc3C2=O)n1 [O-0031, 2-(6-(methylsulfonyl)pyridin-2-yl)-7-(4-(trifluoromethyl)phenoxy)-3,4-dihydroisoquinolin-1(2H)-one] | 0.001 to 10
O=C1c2cc(Oc3ccc(C(F)(F)F)cc3)ccc2CCN1c1cccc(S(=O)(=O)C(F)(F)F)n1 [O-0032, 7-(4-(trifluoromethyl)phenoxy)-2-(6-((trifluoromethyl)sulfonyl)pyridin-2-yl)-3,4-dihydroisoquinolin-1(2H)-one] | 0.001 to 10
CS(=O)(=O)c1ccnc(N2CCc3ccc(Oc4ccc(C(F)(F)F)cc4)cc3C2=O)c1 [O-0033, 2-(4-(methylsulfonyl)pyridin-2-yl)-7-(4-(trifluoromethyl)phenoxy)-3,4-dihydroisoquinolin-1(2H)-one] | 0.001 to 10
O=C1c2cc(Oc3ccc(C(F)(F)F)cc3)ccc2CCN1c1cccc(S(=O)(=O)C(F)(F)F)c1 [O-0035, 7-(4-(trifluoromethyl)phenoxy)-2-(3-((trifluoromethyl)sulfonyl)phenyl)-3,4-dihydroisoquinolin-1(2H)-one] | 0.001 to 10
CS(=O)(=O)c1nccc(N2CCc3ccc(Oc4ccc(C(F)(F)F)cc4)cc3C2=O)n1 [O-0036, 2-(2-(methylsulfonyl)pyrimidin-4-yl)-7-(4-(trifluoromethyl)phenoxy)-3,4-dihydroisoquinolin-1(2H)-one] | 0.001 to 10
O=C1c2cc(Oc3ccc(C(F)(F)F)cc3)ccc2CCN1c1cccc(-c2nccs2)c1 [O-0038, 2-(3-(thiazol-2-yl)phenyl)-7-(4-(trifluoromethyl)phenoxy)-3,4-dihydroisoquinolin-1(2H)-one] | 0.001 to 10
O=C1c2cc(Oc3ccc(C(F)(F)F)cc3)ccc2CCN1c1cccc(-c2cscn2)c1 [O-0039, 2-(3-(thiazol-4-yl)phenyl)-7-(4-(trifluoromethyl)phenoxy)-3,4-dihydroisoquinolin-1(2H)-one] | 0.001 to 10
